{"source": "paper PMC9268414", "about": "“Screening an In-House Isoquinoline Alkaloids Library for New Blockers of Voltage-Gated Na^+ Channels Using Voltage Sensor Fluorescent Probes: Hits and Biases” (Molecules, 2022)", "key": {"[1]": {"target": "T1, hNaV1.3 channel (Homo sapiens, UniProt Q9NY46)", "T1 construct": "expressed in transfected cells", "T1 sequence (Q9NY46 whole entry)": "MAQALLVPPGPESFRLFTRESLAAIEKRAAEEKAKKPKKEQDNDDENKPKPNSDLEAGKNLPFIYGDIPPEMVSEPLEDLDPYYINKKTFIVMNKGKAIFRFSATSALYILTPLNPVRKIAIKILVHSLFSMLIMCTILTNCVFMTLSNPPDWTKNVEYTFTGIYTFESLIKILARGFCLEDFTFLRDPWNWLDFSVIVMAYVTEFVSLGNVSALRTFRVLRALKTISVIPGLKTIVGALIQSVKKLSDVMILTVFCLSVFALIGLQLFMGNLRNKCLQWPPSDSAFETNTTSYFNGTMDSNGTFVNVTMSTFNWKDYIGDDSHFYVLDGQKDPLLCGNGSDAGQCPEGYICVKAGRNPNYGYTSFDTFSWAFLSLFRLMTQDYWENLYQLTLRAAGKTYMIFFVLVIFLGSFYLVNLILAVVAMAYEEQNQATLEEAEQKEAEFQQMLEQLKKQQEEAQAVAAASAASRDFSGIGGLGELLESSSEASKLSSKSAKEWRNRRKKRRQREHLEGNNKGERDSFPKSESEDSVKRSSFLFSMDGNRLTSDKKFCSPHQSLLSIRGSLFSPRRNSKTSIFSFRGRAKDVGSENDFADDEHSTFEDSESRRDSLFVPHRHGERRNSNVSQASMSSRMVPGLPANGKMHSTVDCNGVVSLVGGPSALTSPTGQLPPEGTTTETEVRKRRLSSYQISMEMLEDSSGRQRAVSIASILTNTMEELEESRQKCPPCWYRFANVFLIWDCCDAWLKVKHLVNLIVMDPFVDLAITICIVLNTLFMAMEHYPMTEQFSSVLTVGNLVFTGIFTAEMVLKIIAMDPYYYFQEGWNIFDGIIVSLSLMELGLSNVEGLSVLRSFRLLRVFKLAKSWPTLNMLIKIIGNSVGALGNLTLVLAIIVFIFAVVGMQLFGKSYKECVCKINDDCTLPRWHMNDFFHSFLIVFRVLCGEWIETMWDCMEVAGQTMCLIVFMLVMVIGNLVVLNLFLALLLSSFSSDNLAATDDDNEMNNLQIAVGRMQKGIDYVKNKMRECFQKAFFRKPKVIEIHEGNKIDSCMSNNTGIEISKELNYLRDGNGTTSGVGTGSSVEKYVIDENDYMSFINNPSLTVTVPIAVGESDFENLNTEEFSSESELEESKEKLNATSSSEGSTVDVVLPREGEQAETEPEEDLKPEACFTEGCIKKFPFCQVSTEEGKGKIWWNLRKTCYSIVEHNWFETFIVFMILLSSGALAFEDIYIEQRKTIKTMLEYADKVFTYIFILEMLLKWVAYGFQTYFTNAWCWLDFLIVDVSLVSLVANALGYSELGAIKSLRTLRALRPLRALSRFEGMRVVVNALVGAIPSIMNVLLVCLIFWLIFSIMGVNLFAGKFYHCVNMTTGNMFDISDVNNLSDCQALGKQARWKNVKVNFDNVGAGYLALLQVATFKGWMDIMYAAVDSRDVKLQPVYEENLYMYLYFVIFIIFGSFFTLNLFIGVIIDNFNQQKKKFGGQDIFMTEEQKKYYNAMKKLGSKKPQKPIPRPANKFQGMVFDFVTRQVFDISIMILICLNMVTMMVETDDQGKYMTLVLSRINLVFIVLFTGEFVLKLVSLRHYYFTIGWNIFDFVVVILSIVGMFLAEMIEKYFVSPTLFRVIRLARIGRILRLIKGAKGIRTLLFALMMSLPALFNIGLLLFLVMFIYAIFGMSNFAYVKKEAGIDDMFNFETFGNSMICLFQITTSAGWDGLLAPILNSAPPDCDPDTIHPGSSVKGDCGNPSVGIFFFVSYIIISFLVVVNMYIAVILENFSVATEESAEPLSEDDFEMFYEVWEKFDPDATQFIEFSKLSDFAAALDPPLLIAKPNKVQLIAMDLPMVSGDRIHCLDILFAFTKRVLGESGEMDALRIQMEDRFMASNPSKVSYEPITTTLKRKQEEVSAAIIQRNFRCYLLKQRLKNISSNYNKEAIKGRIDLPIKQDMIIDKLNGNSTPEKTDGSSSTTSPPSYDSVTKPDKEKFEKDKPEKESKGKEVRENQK", "experiment": "Automated patch-clamp, Na+ currents in HEK293-hNaV1.3 cells", "format": "cell-based", "settings": "for Effect on Na+ currents elicited by hNaV1.3: HEK293-hNaV1.3, without BTX", "procedure": "(§1) GH3b6 cells are a subclone of the GH3 pituitary cell line and were a generous gift from Dr. Françoise Macari (IGF, Montpellier, France). GH3b6 cells were cultivated from passage 14 until passage 32 at 37 °C/5% CO2 in Dubelcco’s Modified Eagle Medium (DMEM)/F12 (Lonza, Basel, Switzerland), supplemented with 10% FBS (Lonza, Basel, Switzerland), 1 mM L-glutamine, and 1 mM penicillin and streptomycin solution. For the fluorescence assay, the GH3b6 cells were seeded in black-walled, clear-bottom, 96-well, tissue culture-treated, and sterile imaging plates (Corning Hazebrouck, France), at a density of 10,000 cells per well, and incubated for 24 h before starting the experiment. The human Nav1.3 (hNav1.3) channel-expressing cell line (HEK293) used in this work was a generous gift from Massimo Mantegazza (IPMC, Nice, France). HEK293-hNaV1.3 cells were cultivated from passage 20 until passage 35 at 37 °C/5% CO2 in a DMEM high glucose medium (4.5 g/l), supplemented with 10% FBS, pyruvate, L-glutamine, and penicillin and streptomycin solution, each one at 1 mM, completed with 800 µg/mL geneticin G418. For the fluorescence assays, the cells were plated at a density of 50,000 cells per well in black-walled, clear-bottom, 96-well plates and then cultured at 37 °C and 5% CO2 for 24 h before the experiments. HEK293 stably expressing hNaV1.2 and hNaV1.6 were cultivated in the same conditions mentioned above for the HEK293-hNaV1.3 cells. For the automated patch-clamp experiments, cells were passaged from 24 to 48 h prior to the experiment and replated in the appropriate quantity to reach 50–70% confluence. For electrophysiological recordings, cells were detached with trypsin-EDTA and diluted in a culture medium. Then, the cells were centrifuged at 800 rpm for 4 min and resuspended (~300,000 cells/mL) in a patch-clamp extracellular solution.\n(§2) Whole-cell recordings were used to investigate the effects of oxostephanine, liriodenine, thalmiculine, bebeerine, and protopine on HEK293 cells stably expressing the hNav1.2, hNav1.3, and hNav1.6 channels. Automated patch-clamp recordings were performed using the SyncroPatch 384PE from Nanion (München, Germany). Chips with a single hole (n = 384, series resistance 3.93 ± 1.19 MΩ) were used for HEK293 cell recordings. Pulse generation and data collection were performed with the PatchControl384 v1.9.7 software (Nanion) and the Biomek interface (Beckman Coulter). Whole-cell recordings were conducted according to the recommended procedures of Nanion. The cells were stored in a cell hotel reservoir at 10 °C, with a shaking speed of 60 RPM. After initiating the experiment, cell catch, sealing, whole-cell formation, liquid application, recording, and data acquisition were all performed sequentially and automatically. The intracellular solution contained (in mM): 10 CsCl, 110 CsF, 10 NaCl, 10 EGTA, and 10 HEPES (pH 7.2, osmolarity 280 mOsm), and the extracellular solution contained (in mM): 60 NMDG, 80 NaCl, 4 KCl, 2 CaCl2, 1 MgCl2, 5 Glucose, and 10 HEPES (pH 7.4 (NaOH), osmolarity 280 ± 3 mOsm). Whole-cell experiments were performed at a holding potential of −100 mV at room temperature (18–22 °C). Currents were sampled at 20 kHz. For pharmacological assays, alkaloid solutions were prepared at 30 µM in the extracellular solution supplemented with 0.3% bovine serum albumin and distributed in 384-well compound plates according to a pre-established plate plan. This distribution within compound plates could not be randomized since it would then excessively complexify the methods of analyses. The working compound solution was diluted 3 times in the patch-clamp recording well by adding from 30 to 60 µL of the external solution to reach the final reported concentration and the test volume of 90 µL. The effects of IA (10 µM) or of BTX (1 µM) were measured at the end of a 10 min application time. Activation curves were built by depolarizations lasting for 2000 ms, from −130 mV to 40 mV, using 5 mV increment steps. […]"}, "[2]": {"target": "human NaV1.3 channel (Homo sapiens, UniProt Q9NY46)", "sequence (Q9NY46 whole entry)": "as above", "experiment": "ANG-2 intracellular Na+ fluorescent assay in HEK293-hNaV1.3 cells", "format": "cell-based"}, "[3]": {"target": "T2, hNaV1.2 channel (Homo sapiens, UniProt Q99250)", "T2 construct": "expressed in transfected cells", "T2 sequence (Q99250 whole entry)": "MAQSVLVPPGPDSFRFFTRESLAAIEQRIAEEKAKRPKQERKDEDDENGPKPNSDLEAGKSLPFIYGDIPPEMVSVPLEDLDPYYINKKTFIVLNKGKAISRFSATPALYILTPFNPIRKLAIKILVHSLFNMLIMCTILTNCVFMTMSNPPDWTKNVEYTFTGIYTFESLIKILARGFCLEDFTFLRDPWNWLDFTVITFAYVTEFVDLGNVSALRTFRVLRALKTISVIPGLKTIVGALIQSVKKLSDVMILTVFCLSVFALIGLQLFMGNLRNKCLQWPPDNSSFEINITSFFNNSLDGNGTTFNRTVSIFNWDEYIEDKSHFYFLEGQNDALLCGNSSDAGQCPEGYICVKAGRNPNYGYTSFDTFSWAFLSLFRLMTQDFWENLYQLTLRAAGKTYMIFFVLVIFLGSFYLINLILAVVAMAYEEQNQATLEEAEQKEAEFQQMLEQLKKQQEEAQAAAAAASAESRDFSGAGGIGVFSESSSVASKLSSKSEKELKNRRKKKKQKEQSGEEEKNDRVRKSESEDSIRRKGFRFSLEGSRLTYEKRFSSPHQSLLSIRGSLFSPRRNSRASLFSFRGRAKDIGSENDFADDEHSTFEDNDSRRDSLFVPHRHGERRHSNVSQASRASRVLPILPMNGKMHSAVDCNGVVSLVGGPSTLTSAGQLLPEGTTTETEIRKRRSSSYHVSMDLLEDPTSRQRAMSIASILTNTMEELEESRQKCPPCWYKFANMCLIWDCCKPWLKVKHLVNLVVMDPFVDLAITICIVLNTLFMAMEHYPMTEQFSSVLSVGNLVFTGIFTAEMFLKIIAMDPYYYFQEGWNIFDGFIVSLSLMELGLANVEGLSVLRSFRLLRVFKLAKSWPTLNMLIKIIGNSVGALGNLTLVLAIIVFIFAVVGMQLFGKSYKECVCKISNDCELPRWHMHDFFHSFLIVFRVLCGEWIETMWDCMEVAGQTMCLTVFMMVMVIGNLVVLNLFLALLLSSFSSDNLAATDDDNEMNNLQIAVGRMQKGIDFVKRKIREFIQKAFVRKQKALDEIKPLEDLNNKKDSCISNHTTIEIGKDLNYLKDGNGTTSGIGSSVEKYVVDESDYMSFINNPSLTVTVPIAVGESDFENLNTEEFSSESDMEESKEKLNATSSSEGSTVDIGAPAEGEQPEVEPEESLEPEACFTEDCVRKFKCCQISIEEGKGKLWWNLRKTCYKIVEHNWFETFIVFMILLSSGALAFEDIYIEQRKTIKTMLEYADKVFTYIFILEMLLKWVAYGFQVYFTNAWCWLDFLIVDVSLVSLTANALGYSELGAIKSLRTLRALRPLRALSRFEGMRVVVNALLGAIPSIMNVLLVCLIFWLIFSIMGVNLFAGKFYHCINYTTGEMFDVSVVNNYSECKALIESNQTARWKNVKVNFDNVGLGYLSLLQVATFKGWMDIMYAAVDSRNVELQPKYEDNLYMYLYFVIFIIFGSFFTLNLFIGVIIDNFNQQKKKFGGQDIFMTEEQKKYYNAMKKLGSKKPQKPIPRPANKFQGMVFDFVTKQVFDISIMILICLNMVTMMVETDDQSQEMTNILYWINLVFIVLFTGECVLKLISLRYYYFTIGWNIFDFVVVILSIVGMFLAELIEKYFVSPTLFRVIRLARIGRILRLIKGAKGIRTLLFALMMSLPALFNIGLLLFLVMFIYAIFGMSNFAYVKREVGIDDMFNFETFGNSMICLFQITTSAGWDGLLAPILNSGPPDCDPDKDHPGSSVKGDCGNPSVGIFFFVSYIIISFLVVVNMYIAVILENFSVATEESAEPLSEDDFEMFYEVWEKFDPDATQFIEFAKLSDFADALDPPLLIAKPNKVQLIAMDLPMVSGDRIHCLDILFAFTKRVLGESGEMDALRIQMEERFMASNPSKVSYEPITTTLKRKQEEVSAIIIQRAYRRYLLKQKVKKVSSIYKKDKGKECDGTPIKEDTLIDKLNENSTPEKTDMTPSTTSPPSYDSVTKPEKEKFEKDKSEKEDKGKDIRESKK", "experiment": "Automated patch-clamp, Na+ currents in HEK293-hNaV1.2 cells", "format": "cell-based", "settings": "for Effect on Na+ currents elicited by hNaV1.2: HEK293-hNaV1.2", "procedure": "as §1, §2"}, "[4]": {"test_system": "NaV channels endogenously expressed in GH3b6 cells", "experiment": "FRET voltage sensor probe (VSP) assay of BTX-induced depolarization in GH3b6 cells", "format": "cell-based, rat", "settings": "for Maximum of Inhibition of BTX-evoked VSP signal / IC50 / Inhibitory Effects (%) on BTX-induced VSP signal (screening): GH3b6 cells; for Maximum of Inhibition of BTX-evoked VSP signal / IC50: BTX 1 µM, n = 6; for Maximum of Inhibition of BTX-evoked VSP signal: % printed only; for IC50: read-out: IC50 (µM), inhibition of BTX-evoked VSP signal; for Inhibitory Effects (%) on BTX-induced VSP signal (screening): IA at 10–50 µg/mL co-incubated with 1 µM BTX"}, "[5]": {"target": "T3, hNaV1.6 channel (Homo sapiens, UniProt Q9UQD0)", "T3 construct": "expressed in transfected cells", "experiment": "Automated patch-clamp, Na+ currents in HEK293-hNaV1.6 cells", "format": "cell-based", "settings": "for inhibition at 10 µM / Change in V1/2 of activation and inactivation vs control / Effect on Na+ currents elicited by hNaV1.6: 10 µM; for Effect on Na+ currents elicited by hNaV1.6: HEK293-hNaV1.6", "procedure": "as §1, §2"}, "[6]": {"settings": "10 µM, Vm between −20 mV and 30 mV"}, "[7]": {"settings": "IA at 10 µM, BTX 3 µM, HEK293-hNaV1.3"}}, "note": "Values joined by “and” are separate entries in the source; they are usually repeats but may differ in a detail not shown here. Equal entries are not always repeated.", "data": [{"compound": "COc1cc2c3cc1Oc1cc(ccc1O)CC1c4c(cc(OC)c(O)c4Oc4ccc(cc4)CC3N(C)CC2)CCN1C", "note": "(centres unmarked) [IA52, bebeerine]", "values": [{"measurement": "inhibition at 10 µM", "setting": "[1]; [6]", "result": "60 to 64", "unit": "%"}, {"measurement": "inhibition at 10 µM", "setting": "[1]; 10 µM, at −15 mV", "result": "64 ± 4", "unit": "%"}, {"measurement": "Shift in V1/2 activation vs control", "setting": "[1]; hNaV1.3, 10 µM", "result": "−3.6 ± 1.0"}, {"measurement": "Activation Slope (±SEM)", "setting": "[1]; hNaV1.3, 10 µM bebeerine", "result": "6.4 ± 0.3 ^2"}, {"measurement": "Activation V1/2 (±SEM, mV)", "setting": "[1]; hNaV1.3, 10 µM bebeerine", "result": "−26.9 ± 0.7 (n = 51) mV"}, {"measurement": "Inactivation Slope (±SEM)", "setting": "[1]; hNaV1.3, 10 µM bebeerine", "result": "−8.9 ± 0.3 ^5"}, {"measurement": "Inactivation V1/2 (±SEM, mV)", "setting": "[1]; hNaV1.3, 10 µM bebeerine", "result": "−60.2 ± 0.9 (n = 26) mV"}, {"measurement": "inhibition at 10 µM", "setting": "[2]; IA at 10 µM, BTX 3 µM, HEK293-hNaV1.3, read-out: Inhibition of BTX-induced [Na+]i elevation (ANG-2 signal)", "result": "18 ± 2", "unit": "%"}, {"measurement": "inhibition at 10 µM", "setting": "[3]; [6]", "result": "42 to 50", "unit": "%"}, {"measurement": "IC50", "setting": "[3]; estimated from inhibition at 10 µM, read-out: IC50 on Na+ currents elicited by hNaV1.2", "result": "< 10 µM and > 10 µM"}, {"measurement": "Change in V1/2 of activation and inactivation vs control", "setting": "[3]; hNaV1.2, 10 µM", "result": "no significant change"}, {"measurement": "Activation Slope (±SEM)", "setting": "[3]; hNaV1.2, 10 µM bebeerine", "result": "5.8 ± 0.3 ^1"}, {"measurement": "Activation V1/2 (±SEM, mV)", "setting": "[3]; hNaV1.2, 10 µM bebeerine", "result": "−29.1 ± 1.1 (n = 36) mV"}, {"measurement": "Inactivation Slope (±SEM)", "setting": "[3]; hNaV1.2, 10 µM bebeerine", "result": "−8.5 ± 0.3 ^4"}, {"measurement": "Inactivation V1/2 (±SEM, mV)", "setting": "[3]; hNaV1.2, 10 µM bebeerine", "result": "−62.3 ± 1.1 (n = 21) mV"}, {"measurement": "Maximum of Inhibition of BTX-evoked VSP signal", "setting": "[4]", "result": "41.04 ± 3.44", "unit": "%"}, {"measurement": "IC50", "setting": "[4]", "result": "0.74 ± 0.11", "unit": "µM"}, {"measurement": "Inhibitory Effects (%) on BTX-induced VSP signal (screening)", "setting": "[4]", "result": 81.9, "unit": "%"}, {"measurement": "inhibition at 10 µM", "setting": "[5]; Vm between −20 mV and 30 mV", "result": "70 to 74", "unit": "%"}, {"measurement": "inhibition at 10 µM", "setting": "[5]; at −20 mV", "result": "74 ± 3", "unit": "%"}, {"measurement": "IC50", "setting": "[5]; estimated from inhibition at 10 µM, read-out: IC50 on Na+ currents elicited by hNaV1.6", "result": "< 10 µM and > 10 µM"}, {"measurement": "Change in V1/2 of activation and inactivation vs control", "setting": "[5]; hNaV1.6", "result": "no significant change"}, {"measurement": "Activation Slope (±SEM)", "setting": "[5]; hNaV1.6, 10 µM bebeerine", "result": "7.0 ± 0.3 ^3"}, {"measurement": "Activation V1/2 (±SEM, mV)", "setting": "[5]; hNaV1.6, 10 µM bebeerine", "result": "−22.1 ± 0.7 (n = 32) mV"}, {"measurement": "Inactivation Slope (±SEM)", "setting": "[5]; hNaV1.6, 10 µM bebeerine", "result": "−9.0 ± 0.3 ^6"}, {"measurement": "Inactivation V1/2 (±SEM, mV)", "setting": "[5]; hNaV1.6, 10 µM bebeerine", "result": "−60.2 ± 0.7 (n = 24) mV"}]}, {"compound": "NC1=N[C@H](O)[C@H]2[C@H]3O[C@]4(O)O[C@@H]([C@@H](O)[C@@]2(N1)[C@@H]4O)[C@]3(O)CO", "note": "[TTX, tetrodotoxin, reference compound]", "values": [{"measurement": "Inhibition of BTX-induced ANG-2 fluorescence ratio", "setting": "[2]", "result": "92 ± 5", "unit": "%"}, {"measurement": "Effect on VSP fluorescence emission ratio induced by BTX", "setting": "[4]", "result": "fully abolished"}, {"measurement": "IC50 of TTX on VSP signal ratio induced by BTX", "setting": "[4]", "result": "0.00858 ± 0.00167", "unit": "µM"}]}, {"compound": "gyrocarpusine [IA42]", "values": [{"measurement": "Inhibitory Effects (%) on BTX-induced VSP signal (screening)", "setting": "[4]", "result": 78.5, "unit": "%"}]}, {"compound": "protopine [IA69]", "values": [{"measurement": "Effect on Na+ currents elicited by hNaV1.3", "setting": "[1]; 10 µM", "result": "no effects"}, {"measurement": "Change in V1/2 of activation and inactivation vs control", "setting": "[1]; hNaV1.3, 10 µM", "result": "ns"}, {"measurement": "Inhibition of BTX-induced [Na+]i elevation (ANG-2 signal)", "setting": "[2]; [7]", "result": "no significant inhibitory effects"}, {"measurement": "Effect on Na+ currents elicited by hNaV1.2", "setting": "[3]; 10 µM", "result": "no effects"}, {"measurement": "Change in V1/2 of activation and inactivation vs control", "setting": "[3]; hNaV1.2, 10 µM", "result": "ns"}, {"measurement": "Maximum of Inhibition of BTX-evoked VSP signal", "setting": "[4]", "result": "64.67 ± 5.50", "unit": "%"}, {"measurement": "IC50", "setting": "[4]", "result": "3.97 ± 0.1", "unit": "µM"}, {"measurement": "Inhibitory Effects (%) on BTX-induced VSP signal (screening)", "setting": "[4]", "result": 99.9, "unit": "%"}, {"measurement": "Effect on Na+ currents elicited by hNaV1.6", "setting": "[5]", "result": "no effects"}, {"measurement": "Change in V1/2 of activation and inactivation vs control", "setting": "[5]; hNaV1.6", "result": "ns"}]}, {"compound": "thalmiculine [IA49]", "values": [{"measurement": "Effect on Na+ currents elicited by hNaV1.3", "setting": "[1]; 10 µM", "result": "no effects"}, {"measurement": "Change in V1/2 of activation and inactivation vs control", "setting": "[1]; hNaV1.3, 10 µM", "result": "ns"}, {"measurement": "Inhibition of BTX-induced [Na+]i elevation (ANG-2 signal)", "setting": "[2]; [7]", "result": "no significant inhibitory effects"}, {"measurement": "Effect on Na+ currents elicited by hNaV1.2", "setting": "[3]; 10 µM", "result": "no effects"}, {"measurement": "Change in V1/2 of activation and inactivation vs control", "setting": "[3]; hNaV1.2, 10 µM", "result": "ns"}, {"measurement": "Maximum of Inhibition of BTX-evoked VSP signal", "setting": "[4]", "result": "31.07 ± 4.04", "unit": "%"}, {"measurement": "IC50", "setting": "[4]", "result": "0.38 ± 0.19", "unit": "µM"}, {"measurement": "Inhibitory Effects (%) on BTX-induced VSP signal (screening)", "setting": "[4]", "result": 91.1, "unit": "%"}, {"measurement": "Effect on Na+ currents elicited by hNaV1.6", "setting": "[5]", "result": "no effects"}, {"measurement": "Change in V1/2 of activation and inactivation vs control", "setting": "[5]; hNaV1.6", "result": "ns"}]}]}
